A short description of assay [1]: Biological activity as antiangiogenesis agent.
Assay [2] has as its system Goldblatt 2 kidney, 1 clip model (renin-angiotensin mediated hypertension). The assay can be described thus: Blood pressure in Goldblatt 2 kidney, 1 clip rats (vasoconstrictive hypertension model). Format: in vivo, rat. The following applies: Group III, two rats; about 1.53 micrograms per 100 grams body weight. As for the experimental part:
(§1) In order to confirm the effectiveness of resibufogenin in treating volume expansion mediated hypertension, experiments were performed. Animal models of volume expansion mediated hypertension were created in the laboratory in accordance with guidance provided in “Down-regulation of Phosphorylation of Renal Proximal Brush Border Membrane Protein in DOCA-salt hypertensive rats”. H. Cai et al., J Am Soc Nephrol 5:S26, (1994). These models consisted of the administration of a potent mineralocorticoid desoxycorticosterone (DOCA) to rats whose drinking water had been replaced with 0.9% saline and which had one kidney removed (uninephrectomy) in order to induce volume expansion mediated hypertension. This group of animals is listed as Group I. Group II was the uninephrectomy control group (“time control”). Another group (Group III) utilized the Goldblatt 2 kidney, 1 clip model to induce vasoconstrictive (renin-angiotensin mediated) form of essential hypertension. All of the blood pressures were measured in mm Hg.
In each group, a baseline blood pressure was taken. This is shown in the first column. Subsequently, 10 days to 2 weeks prior to the introduction of resibufogenin, the blood pressure was measured. This appears in the second column. In the third column, the blood pressure was measured 10 days after administration of resibufogenin. […]

For assay [3], the system named is DOCA-salt uninephrectomized rats (volume expansion mediated hypertension). In words: Blood pressure in DOCA-salt uninephrectomized rats (volume expansion mediated hypertension model). Format: in vivo, rat. The protocol:
as §1
In each group, a baseline blood pressure was taken. This is shown in the first column. Subsequently, 10 days to 2 weeks prior to the introduction of resibufogenin, the blood pressure was measured. This appears in the second column. In the third column, the blood pressure was measured 10 days after administration of resibufogenin. The rats in Groups I and III weighed about 200 to 250 gm with resibufogenin being administered in the amount of about 1.53 micrograms per 100 grams of body weight. […] It is also noted that in the Group II control, that there was no meaningful pattern of reduction in blood pressure.
A dosage of approximately 1.53 micrograms […] with the rats weighing in the range of about 200-250 g was employed daily in order to determine the effectiveness of resibufogenin in the treatment of volume expansion mediated hypertension. The dosage was administered intraperitonially and the rats monitored after about three to four days of treatment. […]
The dosage was administered intraperitonially and the rats monitored after about three to four days of treatment. […]

The record followed here is patent US20070014722A1, “Method of treating human volume expansion mediated hypertension employing resibufogenin” (The Administrators of the Tulane Educational Fund, priority 2005, published 2007).

Values joined by “and” are separate entries in the source; they are usually repeats but may differ in a detail not shown here. Identical values can stand only once. “Also recorded” adds a separate entry of the source.

Turning to `C[C@]12CC[C@H](O)C[C@H]1CC[C@@H]1[C@@H]2CC[C@]2(C)[C@@H](c3ccc(=O)oc3)C[C@H]3O[C@]132` [Resibufogenin, resibufogenin], the “Biological activity as an antiangionesis agent” value in assay [1] is “not to be biologically active”. The “Blood pressure response to resibufogenin (in words)” value in assay [2] was “neither animal responded to resibufogenin”. Further, the “Reduction in blood pressure (in words)” value in assay [3] (Group I, four rats, 10 days after administration of resibufogenin) is “very substantial reduction in blood pressure; also recorded: meaningful reduction in blood pressure”. In assay [3] (Group I, individual rats #1-#4, about 1.53 micrograms per 100 grams body weight daily, intraperitoneal, in DMSO, after 10 days), the “Blood Pressure After 10 days of Resibufogenin” value is 85 mmHg and 90 mmHg and 130 mmHg and 100 mmHg. In assay [3] (daily intraperitoneal dose, rats monitored after about three to four days of treatment), the “Reduction in blood pressure after treatment (in words)” value is listed as “all of the rats experienced a substantial reduction in blood pressure”.
